Reference: patent US9096875B2 (Montana State University, priority 2010, dated 2015)
“And” between values parts separate entries of the source, which are not always exact repeats. Identical values can stand only once. Like-named read-outs stand apart in the source and are kept apart here.

Columns and labels:
[1] = system: Scenedesmus WC-1; details: for total Nile Red fluorescence reached: began to increase at 5 d; for Dry Weight (DCW) / Final Cell Density / Final Total Nile Red Fluorescence / Final Specific Nile Red Intensity Cell-1: WC-1, 5% CO2 → Air; for Dry Weight (DCW) / Final Cell Density / Final Total Nile Red Fluorescence: n = 3; for Final Specific Nile Red Intensity Cell-1: fluorescence signal/cell density × 10,000
Procedure: Cultures were grown with 5% CO2 until nitrate depletion was imminent.
(§1) Scenedesmus sp. strain WC-1 (WC-1) was isolated and confirmed unialgal as previously described (Gardner et al. 2010). WC-1 was cultured on Bold's basal medium with pH adjusted to 8.7 with KOH previous to autoclaving (Nichols and Bold 1965). Phaeodactylum tricornutum strain Pt-1 (CCMP 2561) (Pt-1) was acquired from The Provasoli-Guillard National Center for Culture of Marine Phytoplankton (CCMP). Pt-1 was cultured on ASP II medium and 50 mM Tris buffer (Sigma-Aldrich, St. Louis Mo.), pKa 7.8 (Provasoli et al. 1957). Both organisms were checked for bacterial contamination by inoculation into respective medium supplemented with 0.05% yeast extract and 0.05% glucose and incubated in the dark. Experiments were conducted in triplicate in batch culture using 70 mm×500 mm glass tubes containing 1 L media submersed in a water bath to control temperature. Rubber stoppers, containing ports for aeration and sampling, were used to seal the tubes. Temperature was maintained at 24° C. and 20° C., ±1° C., for WC-1 and Pt-1, respectively. Light (400 μmoles m^−2s^−1) was maintained on a 14:10 light:dark cycle by a T5 light bank. Aeration (400 mL min^−1) was supplied by humidified compressed air with and without 5% CO2 (v/v) and controlled using individual rotameters on each bioreactor (Cole-Parmer, Vernon Hills Ill.).
(§2) Cell concentrations were determined using an optical hemacytometer with a minimum of 400 cells counted for statistical reliability. Light micrographs and Nile Red fluorescence images were taken using a transmitted/epifluorescence light microscope (Nikon Eclipse E800) with an Infinity 2 color camera.
Medium pH was measured on samples using a standard bench top pH meter. Nitrate in Bolds basal medium was measured by ion chromatography (IC) using an IonPac AS9-HC Anion-Exchange Column (Dionex) with a 9.0 mM sodium carbonate buffer set at a flow rate of 1.0 mL min^−1. Detection was performed using a CD20 conductivity detector (Dionex) at 21° C., and IC data was analyzed on Dionex PeakNet 5.2 software. Nitrate in ASP II medium was measured using a colorimetric assay based on the reaction of Czechrome NAS reagent (Polysciences Inc., Warrington Pa.) with nitrate ions. In brief, 1 mL of culture was centrifuged at 16,000 g for 15 minutes. The supernatant liquid was then collected for nitrate quantification. 0.1 mL of sample was gently mixed with 1 mL of reagent solution prepared as described by the manufacturer (Polysciences Inc., Warrington Pa.), and incubated 20 minutes at room temperature. The absorbance was read at 570 nm, and nitrate concentration of the sample was calculated using a nitrate standard curve.
(§3) Cellular TAG accumulation was estimated using the Nile Red (9-diethylamino-5H-benzo(α)phenoxazine-5-one) (Sigma-Aldrich, St. Louis Mo.) fluorescence method (Cooksey et al. 1987). TAG accumulation over time was measured by removing 1 mL aliquots from cultures and assayed directly with Nile Red (4 μL from […] in acetone) or by diluting with 4 mL ultrapure H2O or salt water for WC-1 and Pt-1, respectively, before assaying directly with Nile Red (20 μL from […] in acetone). To maintain linearity of the Nile Red assay, dilution was required when population counts exceeded 1×10^7 cell mL^−1 and 3×10^6 cell mL^−1 for WC-1 and Pt-1, respectively. Total Nile Red fluorescence was quantified on a microplate reader (Bio-Tek, Winooski, Vt.) utilizing 480/580 nm excitation/emission filters.

[2] = system: Chlorophyta sp. EN-2; details: 50 mM NaHCO3 prior to nitrate depletion
Procedure: The addition of 50 mM NaHCO3 prior to nitrate depletion was tested on Chlorophyta sp. EN-2.

[3] = system: diatom RGd-1; details: bicarbonate spike at 7.4 d, within 2-3 d of the spike, ambient air, 14:10 light-dark
From the text: RGd-1 was obtained from Yellowstone National Park under Permit No. YELL-2009-SCI-5480. These cultures were illuminated with 14:10 light-dark cycling with ambient air aeration.

[4] = system: Phaeodactylum tricornutum Pt-1
Procedure: The diatom was cultured in ASP II medium, with or without adding NaHCO3 under 14:10 L:D cycle at […] A non-limiting example of ASP II medium is shown below:
as §1, §2
as §3, with “filters. […] To minimize fluorescence spillover, black walled 96-well plates were loaded with 200 μL of sample. Unstained samples were used for background medium and cellular autofluorescence correction. […]” for “filters.”

[5] = system: Coelastrella sp. PC-3
Procedure: The addition of 50 mM NaHCO3 prior to nitrate depletion was tested on Coelastrella sp. PC-3.

[6] = system: Scenedesmus sp. 131; details: 50 mM NaHCO3 prior to nitrate depletion
Procedure: (§4) The addition of 50 mM NaHCO3 prior to nitrate depletion was tested on Chlorophytes Scenedesmus sp.

[7] = system: Kirchneriella sp. 92; details: 50 mM NaHCO3 prior to nitrate depletion
Procedure: as §4

[8] = HCO3 addition at 3.7 d (pre-nitrate depletion), harvest 8.0 d
[9] = HCO3 addition at 6.4 d (post-nitrate depletion), harvest 12.0 d

SMILES: O=C([O-])[O-].[Na+].[Na+] [Na2CO3, sodium carbonate, reference compound]
- TAG accumulation ([1]; all cases of Na2CO3 addition (individual, mix, buffered), near nitrate depletion): did not accumulate elevated levels of TAG

SMILES: O=C([O-])O.[Na+] [bicarbonate, sodium bicarbonate]
- TAG induction ([1]; 25 mM NaHCO3 with 25 mM CAPS buffer (pKa 10.3), near nitrate depletion): almost identical to the unbuffered additions
- period of TAG accumulation ([1]; 50 mM bicarbonate added at 3.7 d (pre-nitrate depletion)): 5 to 8 days
- Nile Red fluorescence after decrease to baseline ([1]; 50 mM bicarbonate added at 6.4 d, post-nitrate depletion): 450 units
- Nile Red fluorescence / TAG accumulation response ([1]; 50 mM bicarbonate added post-nitrate depletion (stationary phase), aeration adjusted to ambient air, listed as NaHCO3): complete loss of cellular TAG accumulation
- TAG accumulation ([1]; 25 and 50 mM added to unbuffered medium near nitrate depletion (FIG. 15)): induce similar levels of TAG
- total Nile Red fluorescence reached ([1]; Example 4: 50 mM bicarbonate spike at 3.7 d, value 4 days later): 20,000 units
- total Nile Red fluorescence reached ([1]; Example 5: 50 mM bicarbonate addition at 3.7 d, value 3 days later): 33,500 units
- Dry Weight (DCW) [1, 8]: 1.1 ± 0.1 g/L
- Final Cell Density [1, 8]: 1.34 ± 0.15 ×10^7 cells mL^−1
- Final Total Nile Red Fluorescence [1, 8]: 33.5 ± 6.3 ×10^3 units
- Final Specific Nile Red Intensity Cell-1 [1, 8]: 24.8 ± 2.2
- Dry Weight (DCW) [1, 9]: 2.1 ± 0.0 g/L
- Final Cell Density [1, 9]: 5.18 ± 0.41 ×10^7 cells mL^−1
- Final Total Nile Red Fluorescence [1, 9]: 0.3 ± 0.3 ×10^3 units
- Final Specific Nile Red Intensity Cell-1 [1, 9]: 0.1 ± 0.1
- minimal concentration range needed to stop cellular replication ([1]; addition just prior to medium nitrate depletion): 10 to 15 mM
- culture time at which maximum total Nile Red fluorescence was reached ([1]; bicarbonate supplemented culture, instead of 16-18 d in ambient aerated culture): 8 days
- cell morphology by microscope ([1]; less than 10 mM NaHCO3 addition): did not indicate cell cycle halting characteristics
- rate of TAG accumulation ([1]; when bicarbonate was added (50 mM, near nitrate depletion), versus ambient aerated culture): twice as fast
- time to reach maximum Nile Red fluorescence signal ([1]; with bicarbonate spike, compared with 8-10 d under ambient air aeration with no spike): 3 to 4 days
- TAG accumulation rate [2]: observable increase
- TAG per cell level (Nile Red specific fluorescence) [2]: observable increase
- total Nile Red fluorescence increase over the no spike control [3]: 10 fold
- Dry Weight (DCW) [4]: 0.1 ± 0.0 g/L
- Final Cell Density [4]: 0.65 ± 0.01 ×10^7 cells mL^−1 and 1.02 ± 0.05 ×10^7 cells mL^−1
- effect on cell replication [4]: cell replication was not inhibited
- lipid production (Nile Red fluorescence) [4]: stimulated more lipid production
- TAG accumulation measured with Nile Red fluorescence [5]: no observable increase in TAG accumulation
- effect on cellular replication [5]: cellular replication ceased
- TAG accumulation rate [6]: increase in TAG accumulation rate
- TAG accumulation rate [7]: decrease in TAG accumulation rate
